Marks after values point to notes of the source that are not given here.
Key:
Format in all cases: in vivo
[1] = tested on: Puccinia recondita f. sp. tritici; assay: Test C: wheat leaf rust control on wheat seedlings; conditions: wheat seedlings sprayed the day before inoculation, 100 = 100% disease control, 0 = none
Source text: (§1) General protocol for preparing test suspensions for Tests A-C: the test compounds were first dissolved in acetone in an amount equal to 3% of the final volume and then suspended at the desired concentration (in ppm) in acetone and purified water (50/50 mix by volume) containing 250 ppm of the surfactant PEG400 (polyhydric alcohol esters). The resulting test suspensions were then used in Tests A-C.
The test solution was sprayed to the point of run-off on wheat seedlings. The following day the seedlings were inoculated with a spore suspension of Puccinia recondita f. sp. tritici (the causal agent of wheat leaf rust) and incubated in a saturated atmosphere at 20° C. for 24 h, and then moved to a growth chamber at 20° C. for 7 days, after which time disease ratings were made.
(§2) A rating of 100 indicates 100% disease control and a rating of 0 indicates no disease control (relative to the controls). A dash (-) indicates the compound was not tested.

Phakopsora pachyrhizi = assay: Test A: Asian soybean rust control on soybean seedlings; conditions: soybean seedlings sprayed the day before inoculation, 100 = 100% disease control, 0 = none
Source text: as §1
The test solution was sprayed to the point of run-off on soybean seedlings. The following day the seedlings were inoculated with a spore suspension of Phakopsora pachyrhizi (the causal agent of Asian soybean rust) and incubated in a saturated atmosphere at 22° C. for 24 h, and then moved to a growth chamber at 22° C. for 8 days, after which time visual disease ratings were made.
as §2

Zymoseptoria tritici = assay: Test B: wheat leaf blotch control on wheat seedlings; conditions: 250 ppm test suspension (asterisk); wheat seedlings sprayed the day before inoculation; 100 = 100% disease control, 0 = none
Source text: as §1
The test solution was sprayed to the point of run-off on wheat seedlings. The following day the seedlings were inoculated with a spore suspension of Zymoseptoria tritici (the causal agent of wheat leaf blotch) and incubated in a saturated atmosphere at 24° C. for 48 h, and then moved to a growth chamber at 20° C. for 17 days, after which time disease ratings were made.
as §2

[2] = 250 ppm test suspension (asterisk)

SMILES | Test C disease control rating ([1]; 10 ppm test suspension) [%] | Test A disease control rating (Phakopsora pachyrhizi; 10 ppm test suspension) [%] | Test C disease control rating ([1]; 50 ppm test suspension) | Test A disease control rating (Phakopsora pachyrhizi; 50 ppm test suspension) [%] | Test B disease control rating (Zymoseptoria tritici) | Test C disease control rating [1, 2]
CS(=O)(=NCc1ccc(-c2noc(C(F)(F)F)n2)cc1)c1ccccc1 (single isomer, unassigned) [Compound 8] | 68 | 100 |  |  |  | 
CS(=O)(=NCc1ccc(-c2noc(C(F)(F)F)n2)cc1)c1ccccc1 (single isomer, unassigned) [Compound 23] |  |  | 85% | 100 |  | 
CS(C)(=O)=Nc1ccc(-c2noc(C(F)(F)F)n2)cc1 [Compound 1] | 0 | 73 |  |  |  | 
CS(=O)(Cc1ccccc1)=NCc1ccc(-c2noc(C(F)(F)F)n2)cc1 (stereo not shown) [Compound 2, N-[methyloxido(phenylmethyl)-λ^4-sulfanylidene]-4-[5-(trifluoromethyl)-1,2,4-oxadiazol-3-yl]benzenemethanamine] |  |  | 100% | 100 | 93* % | 
CS(=O)(=NCc1ccc(-c2noc(C(F)(F)F)n2)cc1)c1ccc(Cl)cc1 (stereo not shown) [Compound 3] | 0 | 94 |  |  |  | 
CS(=O)(=NCc1ccc(-c2noc(C(F)(F)F)n2)cc1)c1ccccn1 (stereo not shown) [Compound 4] | 74 | 98 |  |  |  | 
CS(=O)(=Nc1ccc(-c2noc(C(F)(F)F)n2)cc1)c1ccccn1 (stereo not shown) [Compound 6] | 74 | 99 |  |  |  | 
CS(=O)(=NCc1ccc(-c2noc(C(F)(F)F)n2)cc1)c1ccc(Br)cc1 (stereo not shown) [Compound 9] | 0 | 92 |  |  |  | 
CS(=O)(=NCc1ccc(-c2noc(C(F)(F)F)n2)cc1)c1ccc(C#N)cc1 (stereo not shown) [Compound 10] | 55 | 100 |  |  |  | 
CS(=O)(=NCc1ccc(-c2noc(C(F)(F)F)n2)cc1)c1ccc(C(F)(F)F)cc1 (stereo not shown) [Compound 11] | 0 | 99 |  |  |  | 
O=S(=NCc1ccc(-c2noc(C(F)(F)F)n2)cc1)(c1ccccc1)C1CC1 (stereo not shown) [Compound 12] |  | 97 |  |  | 53* % | 99* %
CS(=O)(=Nc1ccc(-c2noc(C(F)(F)F)n2)cc1)c1cccs1 (stereo not shown) [Compound 13] | 45 | 100 |  |  | 91* % | 
O=S1(=NCc2ccc(-c3noc(C(F)(F)F)n3)cc2)CCOCC1 [Compound 14] | 91 | 99 |  |  |  | 
O=S(CCl)(=NCc1ccc(-c2noc(C(F)(F)F)n2)cc1)c1ccccc1 (stereo not shown) [Compound 15] |  | 97 |  |  | 28* % | 99* %
O=S1(=Nc2ccc(-c3noc(C(F)(F)F)n3)cc2)CCCC1 [Compound 16] | 0 | 77 |  |  | 89* % | 
COC(=O)CCS(=O)(=NCc1ccc(-c2noc(C(F)(F)F)n2)cc1)c1ccccc1 (stereo not shown) [Compound 18] | 0 | 84 |  |  |  | 
O=S(CCC(F)(F)F)(=NCc1ccc(-c2noc(C(F)(F)F)n2)cc1)c1ccccc1 (stereo not shown) [Compound 19] | 0 | 85 |  |  |  | 
CS(=O)(=Nc1ccc(-c2noc(C(F)(F)F)n2)cc1)c1ccncc1 (stereo not shown) [Compound 20] | 89 | 98 |  |  |  | 
CS(=O)(=NCc1ccc(-c2noc(C(F)(F)F)n2)cc1)c1ccccc1 (stereo not shown) [Compound 21] |  |  |  | 100 | 70* % | 100* %

SMILES | Test C disease control rating ([1]; 10 ppm test suspension) [%] | Test A disease control rating (Phakopsora pachyrhizi; 10 ppm test suspension) [%] | Test C disease control rating ([1]; 50 ppm test suspension) | Test A disease control rating (Phakopsora pachyrhizi; 50 ppm test suspension) [%] | Test B disease control rating (Zymoseptoria tritici) | Test C disease control rating [1, 2]
CS(=O)(Cc1ccccc1)=Nc1ccc(-c2noc(C(F)(F)F)n2)cc1 (stereo not shown) [Compound 22] | 89 | 54 |  |  |  | 
CS(=O)(=Nc1ccc(-c2noc(C(F)(F)F)n2)cc1)c1ccsc1 (stereo not shown) [Compound 25, N-(methyloxido-3-thienyl-λ^4-sulfanylidene)-4-[5-(trifluoromethyl)-1,2,4-oxadiazol-3-yl]benzenamine] | 86 | 100 |  |  |  | 
CS(=O)(=NCc1ccc(-c2noc(C(F)(F)F)n2)cc1)c1cccs1 (stereo not shown) [Compound 27] |  | 100 |  |  | 98* % | 100* %
CS(=O)(=NCc1ccc(-c2noc(C(F)(F)F)n2)cc1)c1ccsc1 (stereo not shown) [Compound 28] |  | 100 |  |  | 79* % | 100* %
CS(=O)(=NCc1ccc(-c2noc(C(F)(F)F)n2)cc1)c1ccc2ccccc2c1 (stereo not shown) [Compound 29] |  | 97 |  |  | 3* % | 99* %
CS(=O)(=Nc1ccc(-c2noc(C(F)(F)F)n2)cc1)c1ccc2ccccc2c1 (stereo not shown) [Compound 30] | 74 | 0 |  |  |  | 
CCCS(=O)(=NCc1ccc(-c2noc(C(F)(F)F)n2)cc1)c1ccccc1 (stereo not shown) [Compound 32] | 0 | 99 |  |  |  | 
CS(C)(=O)=NCCc1ccc(-c2noc(C(F)(F)F)n2)cc1 [Compound 33, N-(dimethyloxido-λ^4-sulfanylidene)-4-[5-(trifluoromethyl)-1,2,4-oxadiazol-3-yl]benzeneethanamine] | 68 | 99 |  |  |  | 
CCS(=O)(CC)=NCc1ccc(-c2noc(C(F)(F)F)n2)cc1 [Compound 34] | 41 | 100 |  |  |  | 
CCCS(=O)(Cc1ccccc1)=Nc1ccc(-c2noc(C(F)(F)F)n2)cc1 (stereo not shown) [Compound 35] | 0 | 0 |  |  |  | 
CCCS(=O)(Cc1ccccc1)=NCc1ccc(-c2noc(C(F)(F)F)n2)cc1 (stereo not shown) [Compound 36] | 0 | 100 |  |  |  | 
CCCS(=O)(=NCc1ccc(-c2noc(C(F)(F)F)n2)cc1)c1c(F)c(F)c(F)c(F)c1F (stereo not shown) [Compound 37] |  |  | 89% | 100 | 15* % | 
CS(=O)(=Nc1ccc(-c2noc(C(F)(F)F)n2)cc1)c1ccccc1 (stereo not shown) [Compound 39] | 100 | 99 |  |  | 65* % | 
Cc1cc(C)c(S(C)(=O)=NCc2ccc(-c3noc(C(F)(F)F)n3)cc2)c(C)c1 (stereo not shown) [Compound 40] | 0 | 91 |  |  | 36* % | 
O=S1(=NCc2ccc(-c3noc(C(F)(F)F)n3)cc2)CCCCC1 [Compound 43] |  |  | 99% | 100 |  | 
COc1ccc(S(C)(=O)=NCc2ccc(-c3noc(C(F)(F)F)n3)cc2)cc1 (stereo not shown) [Compound 47] | 32 | 99 |  |  |  | 
COCCS(=O)(=NCc1ccc(-c2noc(C(F)(F)F)n2)cc1)c1ccccc1 (stereo not shown) [Compound 48, N-[(2-methoxyethyl)oxidophenyl-λ^4-sulfanylidene]-4-[5-(trifluoromethyl)-1,2,4-oxadiazol-3-yl]benzenemethanamine] | 45 | 98 |  |  |  | 
COC(=O)c1ccc(S(C)(=O)=NCc2ccc(-c3noc(C(F)(F)F)n3)cc2)cc1 (stereo not shown) [Compound 49] | 0 | 0 |  |  |  | 
CS(C)(=O)=NCc1ccc(-c2noc(C(F)(F)F)n2)cc1 [Compound 50] |  | 99 | 100** % |  |  | 
